Tests used:
Assay in all cases: cell-based
Conditions in all cases: HEK293; relative to aldosterone = 100%; read-out: % relative to Aldo
[1] = target: T1, truncated elephant shark MR (GAL4-DBD-MR-LBD) (Callorhinchus milii, UniProt A0A4W3I5J5); design: transcriptional activation of truncated GAL4-DBD-MR-LBD, luciferase reporter, concentration-response
T1 construct: gene nr3c2
T1 sequence (A0A4W3I5J5 658-956 limits assumed): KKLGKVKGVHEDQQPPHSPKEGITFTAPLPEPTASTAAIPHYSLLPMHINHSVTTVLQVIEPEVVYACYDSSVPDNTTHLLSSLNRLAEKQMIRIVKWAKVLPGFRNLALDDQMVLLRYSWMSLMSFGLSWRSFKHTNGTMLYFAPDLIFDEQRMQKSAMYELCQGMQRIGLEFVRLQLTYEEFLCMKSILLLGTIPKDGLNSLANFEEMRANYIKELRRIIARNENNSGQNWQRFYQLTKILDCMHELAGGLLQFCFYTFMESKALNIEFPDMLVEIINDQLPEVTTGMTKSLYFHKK
Excerpt: (§1) In parallel experiments, truncated elephant shark MR, lacking the A/B domain and containing a GAL4-DBD instead of the MR DBD, retained a strong response to all corticosteroids and to [compound left out] (Figure 3B). […] Concentration-dependent transcriptional activation of full-length and truncated elephant shark MR (shark MR) by 3-ketosteroids. Full length and truncated elephant shark MR (shark MR) were expressed in HEK293 cells with an MMTV-luciferase reporter. Full-length elephant shark MR (shark MR) (A) and (C) and truncated elephant shark MR (shark MR) (B) and (D). (A), (B) Aldo, cortisol, corticosterone, 11deoxycorticosterone or 11-deoxycortisol. (C), (D) Aldo, Prog, [compound left out] [compound left out], 17OH-Prog (17OH-P) or Spiron. […] Y-axis indicates fold-activation compared to the activity of control vector with vehicle (DMSO) alone as 1.  Figure 5. Concentration-dependent transcriptional activation of full-length and truncated chicken and zebrafish MR by progestins and Spironolactone. […] Full-length chicken MR (A) and zebrafish MR (B) and truncated chicken MR (C) and zebrafish MR (D). Y-axis indicates fold-activation compared to the activity of control vector with vehicle (DMSO) alone as 1.

[2] = target: T2, full-length elephant shark MR (Callorhinchus milii, UniProt A0A4W3I5J5); design: transcriptional activation of full-length MR, MMTV-luciferase reporter, concentration-response
T2 construct: gene nr3c2; full coding region in pcDNA3.1, expressed in HEK293 cells
T2 sequence (A0A4W3I5J5 1-956): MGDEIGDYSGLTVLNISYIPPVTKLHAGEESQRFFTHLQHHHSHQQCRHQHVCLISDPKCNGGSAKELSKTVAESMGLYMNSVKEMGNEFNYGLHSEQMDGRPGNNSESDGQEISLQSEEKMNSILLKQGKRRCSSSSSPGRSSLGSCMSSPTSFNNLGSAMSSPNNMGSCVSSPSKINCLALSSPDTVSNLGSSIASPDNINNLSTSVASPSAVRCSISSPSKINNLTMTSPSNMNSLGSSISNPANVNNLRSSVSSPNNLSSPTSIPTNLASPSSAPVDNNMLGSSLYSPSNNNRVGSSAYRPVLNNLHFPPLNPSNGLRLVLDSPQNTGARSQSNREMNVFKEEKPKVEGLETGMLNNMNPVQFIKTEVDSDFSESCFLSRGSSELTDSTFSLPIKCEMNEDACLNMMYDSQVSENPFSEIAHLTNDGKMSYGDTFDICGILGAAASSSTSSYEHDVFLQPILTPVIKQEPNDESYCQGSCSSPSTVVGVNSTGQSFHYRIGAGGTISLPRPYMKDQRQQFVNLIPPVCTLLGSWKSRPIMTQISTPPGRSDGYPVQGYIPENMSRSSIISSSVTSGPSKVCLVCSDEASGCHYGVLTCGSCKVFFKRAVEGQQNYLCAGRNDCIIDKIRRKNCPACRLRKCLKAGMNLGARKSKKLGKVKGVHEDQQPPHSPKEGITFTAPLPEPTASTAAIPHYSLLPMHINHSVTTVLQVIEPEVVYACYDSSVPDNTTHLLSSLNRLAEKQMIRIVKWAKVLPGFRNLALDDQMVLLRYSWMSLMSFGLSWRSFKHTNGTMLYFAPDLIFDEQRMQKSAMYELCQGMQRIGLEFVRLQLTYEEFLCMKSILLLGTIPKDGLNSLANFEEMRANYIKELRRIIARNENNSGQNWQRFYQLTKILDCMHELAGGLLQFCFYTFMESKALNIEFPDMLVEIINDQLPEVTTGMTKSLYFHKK
Excerpt: (§2) Figure 3. Transcriptional activation of elephant shark MR by 3-ketosteroids. Full length and truncated elephant shark MR were expressed in HEK293 cells with an MMTV-luciferase reporter. A. Full length elephant shark MR. […] (19NP), 17OH-Prog, Spiron or vehicle alone (DMSO). B. Truncated elephant shark MR. […] (19NP), 17OH-Prog or Spiron or vehicle alone (DMSO). Results are expressed as means ± SEM, n=3. Y-axis indicates fold-activation compared to the activity of control vector with vehicle (DMSO) alone as 1.  Figure 4. Concentration-dependent transcriptional activation of full-length and truncated elephant shark MR (shark MR) by 3-ketosteroids. Full length and truncated elephant shark MR (shark MR) were expressed in HEK293 cells with an MMTV-luciferase reporter. Full-length elephant shark MR (shark MR) (A) and (C) and truncated elephant shark MR (shark MR) (B) and (D). (A), (B) Aldo, cortisol, corticosterone, 11deoxycorticosterone or 11-deoxycortisol. (C), (D) Aldo, Prog, [compound left out] [compound left out], 17OH-Prog (17OH-P) or Spiron. […] Y-axis indicates fold-activation compared to the activity of control vector with vehicle (DMSO) alone as 1.  Figure 5. Concentration-dependent transcriptional activation of full-length and truncated chicken and zebrafish MR by progestins and Spironolactone. […] Full-length chicken MR (A) and zebrafish MR (B) and truncated chicken MR (C) and zebrafish MR (D). Y-axis indicates fold-activation compared to the activity of control vector with vehicle (DMSO) alone as 1.

full-length chicken MR = target: T3, full-length chicken MR (Gallus gallus, UniProt C1KB84); design: transcriptional activation of full-length MR, MMTV-luciferase reporter, concentration-response
T3 construct: gene NR3C2; full-length, expressed in HEK293 cells
T3 sequence (C1KB84 1-986): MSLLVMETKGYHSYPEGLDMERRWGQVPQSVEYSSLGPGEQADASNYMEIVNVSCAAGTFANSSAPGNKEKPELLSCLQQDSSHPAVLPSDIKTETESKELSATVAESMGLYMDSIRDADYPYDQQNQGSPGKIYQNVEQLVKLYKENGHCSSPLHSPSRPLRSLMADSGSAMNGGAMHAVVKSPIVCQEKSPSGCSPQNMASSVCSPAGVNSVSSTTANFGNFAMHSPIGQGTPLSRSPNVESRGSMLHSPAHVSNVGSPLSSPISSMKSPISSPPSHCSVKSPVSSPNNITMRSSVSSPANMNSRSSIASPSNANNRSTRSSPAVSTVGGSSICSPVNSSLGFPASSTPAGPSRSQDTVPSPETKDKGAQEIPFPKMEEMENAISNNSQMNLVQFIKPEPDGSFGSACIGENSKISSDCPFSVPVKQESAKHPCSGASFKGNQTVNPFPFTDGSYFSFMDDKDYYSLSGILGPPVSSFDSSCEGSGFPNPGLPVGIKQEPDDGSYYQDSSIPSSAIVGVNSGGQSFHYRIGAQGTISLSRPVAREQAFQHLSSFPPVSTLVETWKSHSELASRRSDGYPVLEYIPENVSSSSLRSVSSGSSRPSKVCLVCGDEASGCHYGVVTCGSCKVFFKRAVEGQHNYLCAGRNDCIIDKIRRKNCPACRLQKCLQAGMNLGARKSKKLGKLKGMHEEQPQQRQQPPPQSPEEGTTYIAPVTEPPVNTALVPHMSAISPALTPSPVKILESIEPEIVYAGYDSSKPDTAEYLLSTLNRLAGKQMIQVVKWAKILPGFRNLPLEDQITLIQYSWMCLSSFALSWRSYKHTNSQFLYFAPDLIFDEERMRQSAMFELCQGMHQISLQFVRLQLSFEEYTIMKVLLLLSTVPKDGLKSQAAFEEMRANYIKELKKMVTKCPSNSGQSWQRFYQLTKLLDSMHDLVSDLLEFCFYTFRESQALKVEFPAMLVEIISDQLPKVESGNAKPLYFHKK
Excerpt: as §2

full-length zebrafish MR = target: T4, full-length zebrafish MR (Danio rerio, UniProt A6YIH7); design: transcriptional activation of full-length MR, MMTV-luciferase reporter, concentration-response
T4 construct: gene nr3c2; full-length, expressed in HEK293 cells
T4 sequence (A6YIH7 1-970): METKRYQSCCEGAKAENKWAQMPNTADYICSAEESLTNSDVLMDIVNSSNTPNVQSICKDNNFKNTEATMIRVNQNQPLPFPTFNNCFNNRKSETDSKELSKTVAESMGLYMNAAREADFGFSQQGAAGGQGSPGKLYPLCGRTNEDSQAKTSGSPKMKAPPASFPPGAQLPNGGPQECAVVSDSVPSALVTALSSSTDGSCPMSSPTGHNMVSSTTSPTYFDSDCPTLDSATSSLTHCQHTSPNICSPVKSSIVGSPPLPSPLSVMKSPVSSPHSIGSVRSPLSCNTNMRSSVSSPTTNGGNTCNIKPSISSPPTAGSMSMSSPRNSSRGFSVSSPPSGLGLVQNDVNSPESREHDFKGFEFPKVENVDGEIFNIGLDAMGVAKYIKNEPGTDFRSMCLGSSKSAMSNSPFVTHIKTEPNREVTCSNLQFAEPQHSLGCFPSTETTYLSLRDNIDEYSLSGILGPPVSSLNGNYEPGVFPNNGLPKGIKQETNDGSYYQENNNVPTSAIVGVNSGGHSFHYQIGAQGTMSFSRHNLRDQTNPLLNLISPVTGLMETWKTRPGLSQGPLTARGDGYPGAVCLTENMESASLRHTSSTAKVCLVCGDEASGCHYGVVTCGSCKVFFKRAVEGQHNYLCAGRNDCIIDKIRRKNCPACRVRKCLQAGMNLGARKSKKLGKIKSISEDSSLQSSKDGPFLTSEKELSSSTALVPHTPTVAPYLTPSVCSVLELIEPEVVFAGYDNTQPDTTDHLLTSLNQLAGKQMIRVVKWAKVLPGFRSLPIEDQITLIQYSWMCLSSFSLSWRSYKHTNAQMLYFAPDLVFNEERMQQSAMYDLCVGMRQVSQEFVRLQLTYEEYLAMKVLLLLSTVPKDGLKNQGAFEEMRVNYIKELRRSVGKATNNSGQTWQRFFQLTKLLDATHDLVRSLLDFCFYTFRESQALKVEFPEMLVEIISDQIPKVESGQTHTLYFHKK
Excerpt: as §2

[3] = target: T5, truncated zebrafish MR (GAL4-DBD-MR-LBD) (Danio rerio, UniProt A6YIH7); design: transcriptional activation of truncated GAL4-DBD-MR-LBD, luciferase reporter, concentration-response
T5 construct: gene nr3c2
T5 sequence (A6YIH7 669-970 limits assumed): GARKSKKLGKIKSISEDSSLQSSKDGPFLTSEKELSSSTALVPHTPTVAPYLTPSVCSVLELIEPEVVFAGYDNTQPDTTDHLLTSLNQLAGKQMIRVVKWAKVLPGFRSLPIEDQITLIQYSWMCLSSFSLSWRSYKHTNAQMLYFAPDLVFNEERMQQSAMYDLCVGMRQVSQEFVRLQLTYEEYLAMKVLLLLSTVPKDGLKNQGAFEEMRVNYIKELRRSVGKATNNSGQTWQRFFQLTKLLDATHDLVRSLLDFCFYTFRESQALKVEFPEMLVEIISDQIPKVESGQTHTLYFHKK
Excerpt: as §1

C[C@]12C[C@H](O)[C@H]3[C@@H](CCC4=CC(=O)CC[C@@]43C)[C@@H]1CC[C@@H]2C(=O)CO [B, corticosterone]
Emax [1]: 90% | Emax [2]: 101%

C[C@]12CC[C@H]3[C@@H](CCC4=CC(=O)CC[C@@]43C)[C@@H]1CC[C@@H]2C(=O)CO [11-deoxycorticosterone]
Emax [1]: 81% | Emax [2]: 83%

CC(=O)S[C@@H]1CC2=CC(=O)CC[C@]2(C)[C@H]2CC[C@@]3(C)[C@@H](CC[C@@]34CCC(=O)O4)[C@H]12 [Spiron]
Emax [1]: 53% | Emax (full-length chicken MR): 30% | Emax (full-length zebrafish MR): 54% | Emax [2]: 45%

CC(=O)[C@@]1(O)CC[C@H]2[C@@H]3CCC4=CC(=O)CC[C@]4(C)[C@H]3CC[C@@]21C [17OH-Prog]
Emax [1]: 26% | Emax (full-length chicken MR): 15% | Emax (full-length zebrafish MR): 44% | Emax [2]: 25%

CC(=O)[C@H]1CC[C@H]2[C@@H]3CCC4=CC(=O)CC[C@@H]4[C@H]3CC[C@]12C [19norProg]
Emax [3]: 122% | Emax [1]: 98% | Emax (full-length chicken MR): 68% | Emax (full-length zebrafish MR): 83% | Emax [2]: 84%

CC(=O)[C@H]1CC[C@H]2[C@@H]3CCC4=CC(=O)CC[C@]4(C)[C@H]3CC[C@]12C [Prog]
Emax [3]: 122% | Emax [1]: 40% | Emax (full-length chicken MR): 62% | Emax (full-length zebrafish MR): 77% | Emax [2]: 43%

C[C@]12CCC(=O)C=C1CC[C@@H]1[C@@H]2CC[C@@]2(C)[C@H]1CC[C@]2(O)C(=O)CO [S, 11-deoxycortisol]
Emax [1]: 77% | Emax [2]: 83%

C[C@]12CCC(=O)C=C1CC[C@@H]1[C@@H]2[C@@H](O)C[C@@]2(C)[C@H]1CC[C@]2(O)C(=O)CO [cortisol]
Emax [1]: 79% | Emax [2]: 114%

Reference: doi:10.1101/265348v4, “Transcriptional Activation of Elephant Shark Mineralocorticoid Receptor by Corticosteroids, Progesterone and Spironolactone” (biorxiv, 2018)
